The test system of one experiment is blood pressure. As to the kind of experiment: Effects on Blood Pressure and Heart Rate in the Anesthetized Cat (Test D). It is filed as in vivo. As to conditions: Felis catus, iv, i.v. 0.01 to 10.0 mcg/kg, scored on hypotension, read-out: Activity value, Test D: Normal Feline Blood Pressure and Heart Rate (ED50 mmHg). On the procedure:
D. Evaluation of the Effects of Prostaglandin Analogs III on Blood Pressure and Heart Rate in the Anesthetized Cat
The acute effects of test compounds on blood pressure and heart rate were determined in cats of either sex anesthetized with a mixture of pentobarbital sodium (35 mg/kg, i.v.) and barbital sodium (100 mg/kg, i.v.). Cannulas were placed in the trachea to allow adequate spontaneous ventilation, in a femoral artery for blood pressure recording with a strain gage transducer, and in a saphenous vein for drug administration. Heart rate was recorded by means of a cardiotachometer driven by the R wave of the electrocardiogram. After a period of 10 min of stable recordings of blood pressure and heart rate, the test compound was administered intravenously at doses increasing from 0.01 to 10.0 mcg/kg, spaced one log and injected at 10 min intervals. All doses were injected in a volume of 0.1 ml/kg. Modifications of blood pressure and heart rate induced by the test compound were expressed both in absolute units (mmHg and beats/min) and as percent of values recorded immediately before administration of each dose. Biphasic responses were tabulated in the order in which they occur. The direction of the observed changes was also noted (+ for increase and - for decrease).
Activity of compounds in this test was judged only on the basis of the degree of hypotension observed. Thus, the ED50 mmHg (dose decreasing blood pressure by 50 mmHg) was calculated graphically and the compound scored according to the following scale: […]

The subject of a further experiment is rat uterus. The experiment can be described thus: Effects on the Rat Uterus (Test F). Particulars: for EC50: read-out: Activity value, Test F: Effects on Rat Uterus (ED50, response of 50% that of carbachol). On the procedure: F. Evaluation of the Effects of Prostaglandin Analogs III on the Rat Uterus
The uterine stimulant effect of test compounds is determined in segments of uterus obtained from rats (140-160 g) pretreated subcutaneously with 1 mg/kg of diethylstibesterol 18 hr before the experiment. The tissues are placed in 10 ml chambers filled with de-Jalon solution at 29° C. and bubbled with 95% O2 and 5% CO2, and prepared for isometric recording with force displacement transducers. Preparations are stretched to an initial tension of 1 g and are left undisturbed for 30 min, after which two responses to 1 mcg/ml of carbachol added to the bath at a 10 min interval, are obtained (the value of the second response is recorded). Responses to increasing concentrations of the test compound (0.001 to 10.0 mcg/ml with one log intervals) are then recorded every 10 min. Preparations are washed four times after each response. All doses of drugs are administered in a 0.1 ml volume. Since it has been observed that the magnitude of the second response to carbachol, which is approximately 10% greater than the first, is close to the maximal response of the tissue, such value is taken as a measure of the sensititity of the particular segment. Responses to each concentration of the test compound are expressed in terms of percentage of the second response to carbachol and the ED50 (dose producing a response of 50% that of carbachol) is calculated graphically. Activity is scored according to the following scale: […]

For the next experiment, the system named is femoral blood flow. The experiment can be described thus: Effects on Femoral Blood Flow in the Dog (Test C). As to conditions: anesthetized dog, intraarterial 0.001 to 10 mcg. It is filed as in vivo, dog (mongrel). The protocol: C. Evaluation of the Effects of Prostaglandin Analogs III on the Femoral Blood Flow in the Dog
The peripheral vasodilator or constrictor effects of test compounds were determined in mongrel dogs of either sex, weighing between 10 and 20 kg anesthestized intravenously with 35 mg/kg of sodium pentobarbital. An external iliac artery was dissected immediately above the femoral arch for a length of approximately 5 cm and a previously calibrated, non-connulating electromagnetic flowmeter sensor with a lumen between 2.5 and 3.5 mm was placed snugly around the vessel. Cannulas were placed in a branch of the artery arising distally to the location of the flowmeter sensor for intraarterial drug administrations, in the contralateral femoral artery for systemic blood pressure recordings and in the trachea for artificial respiration with room air. Femoral blood flow and systemic blood pressure were continuously recorded with an electromagnetic flowmeter and pressure transducer, respectively.
After an adequate control period, test compounds were injected intraarterially at one log-spaced doses ranging from 0.001 to 10 mcg., in a volume of 0.5 ml and at 5 to 10 min intervals. Maximum changes in bloodflow, as well as any variations in blood pressure, were tabulated for each dose in absolute values (ml/min and mmHg). The calculations were made taking as control values those existing immediately before administration of each dose. The direction of the observed change (+ for increase and - for decrease) was also noted. The dose changing bloodflow by 100 ml/min (ED100 ml/min) was calculated graphically and was used for scoring activity as follows: […]

Experiment [1] relates to blood pressure (hypertensive rat). As to the kind of experiment: Effects on Blood Pressure in the Hypertensive Rat (Test E). The arrangement: key: 0: Not significant at any time interval; 1: Significant at one time interval; 2: Significant at two time intervals; 3: Significant at three time intervals; 4: Significant at all four intervals. It is filed as in vivo. Particulars: 1 mg/kg intraperitoneal, 2, 4, 6 and 8 hr. On the procedure: E. Evaluation of the Effects of Prostaglandin Analogs III on Blood Pressure in the Hypertensive Rat
The acute antihypertensive activity of test compounds is determined in rats made hypertensive by the procedure of Grollman (A. Proc. Soc. Exper. Biol. Med., 57:102, [1944]). Female rats weighing between 60 and 100 g are anesthetized with ether, the right kidney approached through a flank retroperitoneal incision, decapsulated and tied with a figure-of-eight ligature. The animals are left to recover and two weeks later are again anesthetized and the contralateral kidney removed. Four weeks after the second operation the rats are subjected to indirect blood pressure measurements and those showing systolic pressure values greater than 160 mmHg are selected for drug testing.
Blood pressure is measured in the tail with an inflatable occluding cuff placed at the base of the extremity and a pulse detector located distally. The cuff is inflated to approximately 300 mmHg and is slowly deflated until pulsations appear, indicating the level of systolic pressure; diastolic pressure is not recorded by this procedure. All measurements are carried out in unanesthetized, unsedated animals maintained in a warm environment during the recording procedure and for at least 6 hr before. In all cases, three pressure readings are obtained in succession and mean values are calculated thereof.
Experiments are carried out in groups of five hypertensive rats in which systolic pressure is determined immediately before and 2, 4, 6 and 8 hr after the intraperitoneal administration of the test compound at a dose of 1 mg/kg. Drugs are diluted from stock solutions with phosphate buffer (Lee et al., Prostaglandins 3:29 [1973]), so as to inject this quantity in a volume of 1 ml/kg. Changes from control blood pressure values are calculated for each interval both in mmHg and in per-cent, and evaluated for significance by means of Wilcoxon's signed rank test (Wilcoxon and Wilcox, Some rapid approximate statistical procedures, Lederle Laboratories, Pearl River [1964]).

Setting [2] is: rat uterus segments, 0.001 to 10.0 mcg/ml, 29° C.

Regarding `CCC1CC([C@@H](O)/C=C/[C@H]2[C@H](O)CC(=O)[C@@H]2CCCCCCO)C1` (relative stereo) [TR-4675, (±)16,18-Methano-1-nor-2,11α,15R-trihydroxyprost-13E-en-9-one], the ED (50 mmHg) with blood pressure was above 0.0101 mg/kg. Also, in the experiment with rat uterus (setting [2]), the EC50 is above 10 µg/mL. For the same molecule, in the experiment on femoral blood flow, the “Activity value, Test C: Increase in Canidae Femoral Blood Flow (ED100 ml/min)” value (from here on “Activity value, Test C: Increase”) was 0 (>10.0).

Consider `CCC1CC(C(O)/C=C/[C@H]2C=CC(=O)[C@@H]2CCCCCCC(=O)OC)C1` (stereo partly shown) [TR-4280, Methyl 15RS-hydroxy-16,18-methano-9-oxoprosta-10,13E-dien-1-oate], for which the EC50 in the experiment with rat uterus (setting [2]) is above 10 µg/mL.

For the molecule `CCC1CC([C@H](O)/C=C/[C@H]2C=CC(=O)[C@@H]2CCCCCCCOC(C)=O)C1` (stereo partly drawn) [TR-4565, 1-Acetoxy-15S-hydroxy-16,18-methanoprosta-10,13E-dien-9-one], the ED (50 mmHg) with blood pressure was above 0.0101 mg/kg. The EC50 in the experiment with rat uterus (setting [2]) was above 10 µg/mL. Moreover, the “Activity value, Test C: Increase” value in the experiment on femoral blood flow is listed as 1 (1.0.-10.0).

Consider `CCC1CC([C@H](O)/C=C/C2C(O)CC(O)C2CCCCCCCO)C1` (stereo partly drawn) [TR-4626, 16,18-Methanoprost-13E-en-1,9α,11α,15S-tetraol], for which the “Activity value, Test F: Effects on Rat Uterus (ED50, response of 50% that of carbachol)” value in the experiment with rat uterus (setting [2]) is reported as 0 (>10).

Regarding `CC1([C@@H](O)/C=C/[C@H]2[C@H](O)CC(=O)[C@@H]2CCCCCCCO)CCC1` [TR-4674, 16,19-Cyclo-16-methyl-20-nor-1,11α,15S-trihydroxyprost-13E-en-9-one], the ED (50 mmHg) in the experiment with blood pressure was above 0.0101 mg/kg. The EC50 in the experiment with rat uterus (setting [2]) was above 10 µg/mL. For the same molecule, in experiment [1], the “Activity value, Test E: Effects on Blood Pressure in Hypertensive Rat (blood pressure decrease)” value came to 0.

As for `CCC1CC(C)([C@H](O)/C=C/[C@H]2[C@H](O)CC(=O)[C@@H]2CCCCCCC(=O)OC)C1` (stereo partly drawn) [TR-4681, Methyl 11α,15R-dihydroxy-16,18-methano-16-methyl-9-oxoprost-13E-en-1-oate], the ED (50 mmHg) with blood pressure was 0.00101 to 0.01 mg/kg. Further, the EC50 in the experiment with rat uterus (setting [2]) is above 10 µg/mL. In addition, in the experiment on femoral blood flow, the “Activity value, Test C: Increase” value is 2 (0.11-1.0).

Turning to `COC(=O)CCCCCC[C@H]1C(=O)C=C[C@@H]1/C=C/[C@@H](O)C1(C)CCC1` [TR-4683, Methyl 16,19-cyclo-15R-hydroxy-16-methyl-20-nor-9-oxoprosta-10,13E-dien-1-oate], the EC50 in the experiment on rat uterus (setting [2]) is above 10 µg/mL.

In the case of `CCC1CC(C)([C@@H](O)/C=C/[C@H]2[C@H](O)CC(=O)[C@@H]2CCCCCCCO)C1` (stereo partly drawn) [TR-4689, 16,18-Methano-16-methyl-1,11α,15S-trihydroxyprost-13E-en-9-one], the ED (50 mmHg) in the experiment on blood pressure is above 0.0101 mg/kg. Also, the EC50 in the experiment on rat uterus (setting [2]) was above 10 µg/mL. Besides, the “Activity value, Test C: Increase” value with femoral blood flow is 0 (>10.0).

On to `CCCCC1([C@H](O)/C=C/[C@H]2[C@H](O)CC(=O)[C@@H]2CCCCCCC(=O)OC)CCC1` [TR-4692, Methyl 11α,15R-dihydroxy-9-oxo-16,16-propanoprost-13E-en-1-oate], for which, in the experiment with blood pressure, the ED (50 mmHg) fell in the range of 0.00101 to 0.01 mg/kg. The EC50 in the experiment on rat uterus (setting [2]) was above 10 µg/mL. In addition, the “Activity value, Test E: Effects on Blood Pressure in Hypertensive Rat (blood pressure decrease)” value in experiment [1] is on record as 0.

On to `CCC1CC(C)(C(O)/C=C/[C@H]2C=CC(=O)[C@@H]2CCCCCCC(=O)OC)C1` (stereo partly drawn) [TR-4694, Methyl 15R-hydroxy-16,18-methano-16-methyl-9-oxoprosta-10,13E-dien-1-oate], for which the EC50 with rat uterus (setting [2]) was above 10 µg/mL.

For the molecule `COC(=O)CCCCCC[C@H]1C(=O)C[C@@H](O)[C@@H]1/C=C/[C@H](O)C1CC(CC2CCC2)C1` (stereo partly drawn) [TR-4796, Methyl 11α,15R-dihydroxy-16,18-methano-20,20-propano-9-oxoprost-13E-en-1-oate], the EC50 with rat uterus (setting [2]) is above 10 µg/mL.

With `COC(=O)CCCCCC[C@H]1C(=O)C[C@@H](O)[C@@H]1/C=C/[C@@H](O)C1CC(CC2CCC2)C1` (stereo partly drawn) [TR-4797, Methyl 11α,15S-dihydroxy-16,19-methano-20,20-propano-9-oxoprost-13E-en-1-oate], in the experiment on rat uterus (setting [2]), the EC50 is above 10 µg/mL.

In the case of `O=C1C[C@@H](O)[C@H](/C=C/[C@H](O)C2CC(CC3CCC3)C2)[C@H]1CCCCCCCO` (stereo partly drawn) [TR-4832, 1,11α,15R-Trihydroxy-16,18-methano-20,20-propanoprost-13E-en-9-one], the EC50 in the experiment with rat uterus (setting [2]) was above 10 µg/mL.

For `O=C1C[C@@H](O)[C@H](/C=C/[C@@H](O)C2CC(CC3CCC3)C2)[C@H]1CCCCCCCO` (stereo partly drawn) [TR-4833, 1,11α,15S-Trihydroxy-16,18-methano-20,20-propanoprost-13E-en-9-one], the EC50 in the experiment with rat uterus (setting [2]) is above 10 µg/mL.

As for `O=C1C[C@@H](O)[C@H](/C=C/[C@@H](O)C2CC(C3CCC3)C2)[C@H]1CCCCCCCO` (stereo partly drawn) [TR-4880, 1,11α,15S-Trihydroxy-16,18-methano-19,20-ethanoprost-13E-en-9-one], the EC50 in the experiment on rat uterus (setting [2]) was above 10 µg/mL.

Take `O=C1C[C@@H](O)[C@H](/C=C/[C@H](O)C2CC(C3CCC3)C2)[C@H]1CCCCCCCO` (stereo partly drawn) [TR-4881, 1,11α,15R-Trihydroxy-16,18-methano-19,20-ethanoprost-13E-en-9-one]: in the experiment on rat uterus (setting [2]), the EC50 was above 10 µg/mL.

In the case of `COC(=O)CCCCCC[C@H]1C(=O)C[C@@H](O)[C@@H]1/C=C/[C@H](O)C1CC(C2CCC2)C1` (stereo partly drawn) [TR-4882, Methyl 11α,15R-dihydroxy-16,18-methano-19,20-ethano-9-oxoprost-13E-en-1-oate], the EC50 in the experiment on rat uterus (setting [2]) is above 10 µg/mL.

As to `COC(=O)CCCCCC[C@H]1C(=O)C[C@@H](O)[C@@H]1/C=C/[C@@H](O)C1CC(C2CCC2)C1` (stereo partly drawn) [TR-4887, Methyl 11α,15S-dihydroxy-16,18-methano-19,20-ethano-9-oxoprost-13E-en-1-oate], in the experiment on rat uterus (setting [2]), the EC50 is above 10 µg/mL.

For `C[N+](C)(C)CCOC(N)=O` [carbachol, reference compound], in the experiment on rat uterus (carbachol 1 mcg/ml, rat uterus, 10 min interval), the “magnitude of the second response greater than the first” value is reported as “approximately 10%”.

Source of the values: patent publication US4220795A, “Cyclobutyl substituted derivatives of prostaglandin analogs” (Miles Laboratories, Inc., priority 1978, dated 1980).
